Measurements published in US4935415A, “UCN-01 and process for production thereof” (priority 1986, dated 1990).
≈ marks a conversion by molar mass, not a printed value.

Columns and labels:
[1] = system: lymphocytic leukemia P388 tumor; experiment: Therapeutic effect on lymphocytic leukemia P388 tumor; format: in vivo, male CDF1 mice
Protocol: Therapeutic effect on lymphocytic leukemia P388 tumor:
Five male CDF1 mice each having a weight of about 22 g were used for each group as test animals, and 1×10^6 cells of lymphocytic leukemia P388 tumor were implanted intraperitoneally in the test animals. 24 hours after implantation, 0.2 ml of a phosphate buffer saline (hereafter referred to as PBS) containing UCN-01 was intraperitoneally administered.
The composition of PBS was 0.8% NaCl, 0.02% KCl, 1.15% Na2 HPO4, […] 0.02% KH2 PO4 (pH 7.0).
For comparison, 0.2 ml of PBS solution containing Staurosporine was intraperitoneally administered 24 hours after the implantation of the tumor cells. Increased life span (T/C) (T: mean survival days of the treated group, C: mean survival days of the control group) is shown in Table 5.

[2] = LD50 of Staurosporine (note to Table 5); conditions: in vivo; species and route not printed in the note
[3] = system: Salmonella typhi ATCC 9992; experiment: Anti-bacterial activity, agar dilution method (MIC); format: cell-based; conditions: Salmonella enterica, pH 7
Protocol: (§1) The minimum inhibitory concentration (MIC) against various microorganisms is shown below.
(§2) The anti-bacterial activity was measured by the agar dilution method, using a medium (pH 7) prepared by dissolving 3 g of Bacto-Tryptone (manufacturedby Difco Co., Ltd.), 3 g of meat extract, 1 g of yeast extract, 1 g of glucose and 16 g of agar in 1 (of water.

[4] = system: Escherichia coli ATCC 26; experiment: as above; format: cell-based; conditions: ATCC26, pH 7
Protocol: as §1, §2

[5] = system: Bacillus subtilis No. 10707; experiment: as above; format: cell-based; conditions: pH 7
Protocol: as §1, §2

[6] = system: Klebsiella pneumoniae ATCC 10031; experiment: as above; format: cell-based; conditions: ATCC10031, pH 7
Protocol: as §1, §2

[7] = system: Shigella sonnei ATCC 9290; experiment: as above; format: cell-based; conditions: ATCC9290, pH 7
Protocol: as §1, §2

[8] = system: Staphylococcus aureus ATCC 6538P; experiment: as above; format: cell-based; conditions: ATCC6538P, pH 7
Protocol: as §1, §2

[9] = Acute toxicity (LD50), intraperitoneal administration to mice; conditions: mouse, in vivo, ip
Protocol: The acute toxicity value (LD50) was 30 mg/kg by intraperitoneal administration to mice.

## CN[C@@H]1C[C@H]2O[C@@](C)([C@@H]1OC)n1c3ccccc3c3c4c(c5c6ccccc6n2c5c31)C(=O)NC4 [Staurosporine, reference compound]
[1]; 1 mg/kg, intraperitoneal, 24 hours after implantation
  Increased Life Span (T/C): 1.10
[1]; 2 mg/kg, intraperitoneal, 24 hours after implantation
  Increased Life Span (T/C): 1.12
[1]; 4 mg/kg, intraperitoneal, 24 hours after implantation
  Increased Life Span (T/C): 1.08
[2]
  LD50: 6.6 mg/kg

## CNC1CC2OC(C)(C1OC)n1c3ccccc3c3c4c(c5c6ccccc6n2c5c31)C(=O)NC4O (stereo not drawn) [UCN-01]
[1]; 7.5 mg/kg, intraperitoneal, 24 hours after implantation
  Increased Life Span (T/C): 1.12
[1]; 15 mg/kg, intraperitoneal, 24 hours after implantation
  Increased Life Span (T/C): 1.24
[1]; 30 mg/kg, intraperitoneal, 24 hours after implantation
  Increased Life Span (T/C): toxic: toxic
[1]; comparison with staurosporine, in words
  anti-tumor activity as compared with staurosporine: superior anti-tumor activity
[3]
  MIC: 83 µg/mL (≈ 172 µM)
[4]
  MIC: 83 µg/mL (≈ 172 µM)
[5]
  MIC: > 100 µg/mL
[6]
  MIC: 83 µg/mL (≈ 172 µM)
[7]
  MIC: 100 µg/mL (≈ 207 µM)
[8]
  MIC: 83 µg/mL (≈ 172 µM)
[9]
  LD50: 30 mg/kg
